Experimental data as given in ChEMBL document CHEMBL1201862, “PubChem BioAssay data set” (2004).
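Test compounds were applied to cells in 96-well plates for 48 hours at 5 doses. GI50 = concentration required for 50% inhibition of growth.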 Activity calls are given as the source filed them. Rule as the data show it: active = GI50 up to about 1.1 µM and inactive = higher.

Legend:
Assay in all cases: NCI anticancer screen, dose series, 48 h
786-0 = system: 786-0
ACHN = system: ACHN
HCT-15 = system: HCT-15
HOP-62 = system: HOP-62
HOP-92 = system: HOP-92
IGROV-1 = system: IGROV-1
K562 = system: K562
MOLT-4 = system: MOLT-4
NCI-H23 = system: NCI-H23
NCI-H460 = system: NCI-H460
OVCAR-4 = system: OVCAR-4
SF-268 = system: SF-268
SR = system: SR
U-251 = system: U-251
UACC-257 = system: UACC-257
UACC-62 = system: UACC-62
EKVX = system: EKVX
SK-MEL-2 = system: SK-MEL-2

Structure (SMILES): COC1CC(OS(=O)(=O)c2ccc([N+](=O)[O-])cc2)C(OC(=O)c2ccccc2)C(C)O1 (centres undefined)
- GI50 (786-0): 32.2 µM (inactive)
- GI50 (ACHN): > 100 µM (inactive)
- GI50 (HCT-15): > 100 µM
- GI50 (HOP-62): > 100 µM (inactive)
- GI50 (HOP-92): 55.2 µM (inactive)
- GI50 (IGROV-1): > 100 µM (inactive)
- GI50 (K562): > 100 µM (inactive)
- GI50 (MOLT-4): > 100 µM (inactive)
- GI50 (NCI-H23): > 100 µM (inactive)
- GI50 (NCI-H460): > 100 µM (inactive)
- GI50 (OVCAR-4): 49.9 µM (inactive)
- GI50 (SF-268): 82.2 µM (inactive)
- GI50 (SR): > 100 µM (inactive)
- GI50 (U-251): > 100 µM (inactive)
- GI50 (UACC-257): > 100 µM (inactive)
- GI50 (UACC-62): > 100 µM (inactive)

Structure (SMILES): O=C(CCc1cc(-c2ccccc2)nc(S)n1)N(Cc1ccccc1)Cc1ccccc1
- GI50 (786-0): > 100 µM (inactive)
- GI50 (ACHN): > 100 µM (inactive)
- GI50 (EKVX): > 100 µM (inactive)
- GI50 (HCT-15): > 100 µM
- GI50 (HOP-62): > 100 µM (inactive)
- GI50 (HOP-92): 97.3 µM (inactive)
- GI50 (IGROV-1): > 100 µM (inactive)
- GI50 (K562): > 100 µM (inactive)
- GI50 (MOLT-4): > 100 µM (inactive)
- GI50 (NCI-H23): > 100 µM (inactive)
- GI50 (NCI-H460): > 100 µM (inactive)
- GI50 (OVCAR-4): > 100 µM (inactive)
- GI50 (SF-268): > 100 µM (inactive)
- GI50 (SK-MEL-2): > 100 µM (inactive)
- GI50 (U-251): > 100 µM (inactive)
- GI50 (UACC-257): > 100 µM (inactive)
- GI50 (UACC-62): > 100 µM (inactive)

Structure (SMILES): COc1ccc(/C=N/NC(=O)CSc2nc(-c3ccccc3)c(-c3ccccc3)[nH]2)cc1OC
- GI50 (786-0): 28.7 µM (inactive)
- GI50 (ACHN): 31.3 µM (inactive)
- GI50 (EKVX): 31 µM (inactive)
- GI50 (HCT-15): 26.9 µM
- GI50 (HOP-62): 39.3 µM (inactive)
- GI50 (HOP-92): 42.1 µM (inactive)
- GI50 (IGROV-1): 28.8 µM (inactive)
- GI50 (MOLT-4): 16 µM (inactive)
- GI50 (NCI-H23): 30.3 µM (inactive)
- GI50 (NCI-H460): 28.6 µM (inactive)
- GI50 (OVCAR-4): 31.3 µM (inactive)
- GI50 (SF-268): 50 µM (inactive)
- GI50 (SK-MEL-2): 20.7 µM (inactive)
- GI50 (U-251): 25.6 µM (inactive)
- GI50 (UACC-257): 27.1 µM (inactive)
- GI50 (UACC-62): 23.5 µM (inactive)

Structure (SMILES): CCCCCCCCCCC(O)CCCCCCC(=O)O (centres undefined)
- GI50 (786-0): 24.5 µM (inactive)
- GI50 (ACHN): 22.5 µM (inactive)
- GI50 (EKVX): 31.7 µM (inactive)
- GI50 (HOP-62): 35.9 µM (inactive)
- GI50 (HOP-92): 18.1 µM (inactive)
- GI50 (IGROV-1): 18.2 µM (inactive)
- GI50 (K562): 13.2 µM (inactive)
- GI50 (MOLT-4): 12.7 µM (inactive)
- GI50 (NCI-H23): 35 µM (inactive)
- GI50 (NCI-H460): 16.3 µM (inactive)
- GI50 (OVCAR-4): 39.1 µM (inactive)
- GI50 (SF-268): 77.4 µM (inactive)
- GI50 (SK-MEL-2): 47.9 µM (inactive)
- GI50 (SR): 15.1 µM (inactive)
- GI50 (U-251): 14.9 µM (inactive)
- GI50 (UACC-257): 69.3 µM (inactive)
- GI50 (UACC-62): 19.8 µM (inactive)

Structure (SMILES): COc1ccc(C2S/C(=C\c3ccccc3O)C(=O)N2NC(=O)Cc2ccccc2)cc1 (centres undefined)
- GI50 (786-0): > 100 µM (inactive)
- GI50 (ACHN): > 100 µM (inactive)
- GI50 (HCT-15): > 100 µM
- GI50 (HOP-62): > 100 µM (inactive)
- GI50 (HOP-92): > 100 µM (inactive)
- GI50 (IGROV-1): > 100 µM (inactive)
- GI50 (K562): 68.5 µM (inactive)
- GI50 (MOLT-4): 39.5 µM (inactive)
- GI50 (NCI-H23): > 100 µM (inactive)
- GI50 (NCI-H460): > 100 µM (inactive)
- GI50 (OVCAR-4): > 100 µM (inactive)
- GI50 (SF-268): > 100 µM (inactive)
- GI50 (SK-MEL-2): > 100 µM (inactive)
- GI50 (SR): 37.4 µM (inactive)
- GI50 (U-251): > 100 µM (inactive)
- GI50 (UACC-257): > 100 µM (inactive)
- GI50 (UACC-62): 78.7 µM (inactive)

Structure (SMILES): NCCn1ccc(NC(c2ccccc2)(c2ccccc2)c2ccccc2)nc1=O
- GI50 (786-0): 17.3 µM (inactive)
- GI50 (ACHN): 54.7 µM (inactive)
- GI50 (EKVX): 21.3 µM (inactive)
- GI50 (HCT-15): > 100 µM
- GI50 (HOP-62): 30.1 µM (inactive)
- GI50 (HOP-92): 13.4 µM (inactive)
- GI50 (IGROV-1): 40.7 µM (inactive)
- GI50 (K562): 20.1 µM (inactive)
- GI50 (MOLT-4): 19 µM (inactive)
- GI50 (NCI-H23): > 10 µM (inactive)
- GI50 (NCI-H460): 20.3 µM (inactive)
- GI50 (OVCAR-4): 36.3 µM (inactive)
- GI50 (SF-268): 16.3 µM (inactive)
- GI50 (SK-MEL-2): 18.7 µM (inactive)
- GI50 (SR): 19.4 µM (inactive)
- GI50 (U-251): 20.7 µM (inactive)
- GI50 (UACC-257): 19.5 µM (inactive)

Structure (SMILES): Cc1c(/C=N/N=C/c2[nH]c(C(=O)OC(C)(C)C)c(C)c2C)[nH]c(C(=O)OC(C)(C)C)c1C
- GI50 (786-0): 50.8 µM (inactive)
- GI50 (EKVX): > 100 µM (inactive)
- GI50 (HCT-15): > 100 µM
- GI50 (HOP-62): > 100 µM (inactive)
- GI50 (HOP-92): 67.8 µM (inactive)
- GI50 (IGROV-1): > 100 µM (inactive)
- GI50 (K562): 59.4 µM (inactive)
- GI50 (MOLT-4): > 100 µM (inactive)
- GI50 (NCI-H23): > 100 µM (inactive)
- GI50 (NCI-H460): 81.5 µM (inactive)
- GI50 (OVCAR-4): > 100 µM (inactive)
- GI50 (SF-268): > 100 µM (inactive)
- GI50 (SK-MEL-2): > 100 µM (inactive)
- GI50 (SR): > 100 µM (inactive)
- GI50 (U-251): > 100 µM (inactive)
- GI50 (UACC-257): > 100 µM (inactive)
- GI50 (UACC-62): > 100 µM (inactive)

Structure (SMILES): NC(C(=O)O)c1ccc(C(=O)O)cc1 (centres undefined)
- GI50 (786-0): > 100 µM (inactive)
- GI50 (ACHN): > 100 µM (inactive)
- GI50 (EKVX): > 100 µM (inactive)
- GI50 (HCT-15): > 100 µM
- GI50 (HOP-62): > 100 µM (inactive)
- GI50 (IGROV-1): > 100 µM (inactive)
- GI50 (K562): > 100 µM (inactive)
- GI50 (MOLT-4): > 100 µM (inactive)
- GI50 (NCI-H23): > 100 µM (inactive)
- GI50 (NCI-H460): > 100 µM (inactive)
- GI50 (OVCAR-4): > 100 µM (inactive)
- GI50 (SF-268): > 100 µM (inactive)
- GI50 (SK-MEL-2): > 100 µM (inactive)
- GI50 (SR): > 100 µM (inactive)
- GI50 (U-251): > 100 µM (inactive)
- GI50 (UACC-257): > 100 µM (inactive)
- GI50 (UACC-62): > 100 µM (inactive)
